According to PubChem BioAssay AID248 (DTP/NCI, 2004):
Where “and” joins values, the source holds several entries; their conditions need not be identical. Equal entries are not always repeated. Toxic doses and inconclusive results are not listed. Rule as the data show it: active = T/C of 150% or more; inactive = T/C below 125%.

Tested on: L1210 leukemia ip in BDF1 mice, survival T/C
Assay: NCI In Vivo Anticancer Drug Screen. Data for tumor model L1210 Leukemia (intraperitoneal) in B6D2F1 (BDF1) mice
Conditions: endpoint: mean survival time, higher = longer survival
Outline: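 Transplanted-tumor mice were given test agent; controls received vehicle only. Survival readings from the two groups were divided (treated over control).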

[1] = dose: 50.0 mg/kg/injection, schedule: Q01DX001 (ip), vehicle: saline
[2] = dose: 50.0 mg/kg/injection, schedule: Q01DX009 (ip), vehicle: saline with Tween-80
[3] = dose: 100.0 mg/kg/injection, schedule: Q01DX009 (ip), vehicle: saline with Tween-80
[4] = dose: 100.0 mg/kg/injection, schedule: Q04DX003 (ip), vehicle: saline with Tween-80
[5] = dose: 200.0 mg/kg/injection, schedule: Q04DX003 (ip), vehicle: saline with Tween-80
[6] = dose: 400.0 mg/kg/injection, schedule: Q04DX003 (ip), vehicle: saline with Tween-80
[7] = dose: 100.0 mg/kg/injection, schedule: Q04DX002 (ip), vehicle: saline with Tween-80
[8] = dose: 100.0 mg/kg/injection, schedule: Q01DX001 (ip), vehicle: saline

Measured: T/C

O=C(Nc1cc(C2=NCCN2)cc(C2=NCCN2)c1)Nc1cc(C2=NCCN2)cc(C2=NCCN2)c1
inactive: dose: 0.75 mg/kg/injection, schedule: Q01DX Z (ip), vehicle: carboxymethylcellulose (CMC) 101 % of control | dose: 1.5 mg/kg/injection, schedule: Q01DX Z (ip), vehicle: carboxymethylcellulose (CMC) 98 % of control | dose: 3.0 mg/kg/injection, schedule: Q01DX Z (ip), vehicle: carboxymethylcellulose (CMC) 95 % of control | dose: 6.0 mg/kg/injection, schedule: Q01DX Z (ip), vehicle: carboxymethylcellulose (CMC) 101 % of control

NC(=O)N1CCCCN1C(N)=O
inactive: dose: 100.0 mg/kg/injection, schedule: Q04DX002 (ip), vehicle: saline 99 % of control | dose: 200.0 mg/kg/injection, schedule: Q04DX002 (ip), vehicle: saline 111 % of control | dose: 400.0 mg/kg/injection, schedule: Q04DX002 (ip), vehicle: saline 92 % of control

CC(=O)Nc1ccc[n+](Cc2ccc(S(=O)(=O)F)cc2)c1
inactive: dose: 25.0 mg/kg/injection, schedule: Q04DX003 (ip), vehicle: Klucel (hydroxypropylcellulose) (HPC) 104 % of control | dose: 50.0 mg/kg/injection, schedule: Q04DX003 (ip), vehicle: Klucel (hydroxypropylcellulose) (HPC) 104 % of control

O=c1cc(Nc2cccc3cc4ccccc4cc23)[nH]c(=O)[nH]1
inactive: dose: 38.0 mg/kg/injection, schedule: Q01DX001 (ip), vehicle: Klucel (hydroxypropylcellulose) (HPC) 93 % of control | dose: 75.0 mg/kg/injection, schedule: Q01DX001 (ip), vehicle: Klucel (hydroxypropylcellulose) (HPC) 93 % of control | dose: 150.0 mg/kg/injection, schedule: Q01DX001 (ip), vehicle: Klucel (hydroxypropylcellulose) (HPC) 90 % of control

COc1ccc(NC(=O)CCN2CC2)cc1
inactive: dose: 12.5 mg/kg/injection, schedule: Q01DX001 (ip), vehicle: saline 105 % of control | dose: 25.0 mg/kg/injection, schedule: Q01DX001 (ip), vehicle: saline 97 % of control | dose: 25.0 mg/kg/injection, schedule: Q01DX009 (ip), vehicle: saline with Tween-80 103 % of control | [1] 103 % of control | [2] 95 % of control | dose: 100.0 mg/kg/injection, schedule: Q01DX001 (ip), vehicle: alcohol 93 % of control | [3] 91 % of control | dose: 200.0 mg/kg/injection, schedule: Q01DX001 (ip), vehicle: alcohol 86 % of control

Nc1nc(CNc2ccc(Cl)cc2)nc(Nc2ccc(Cl)cc2)n1
inactive: [4] 89 % of control | [5] 95 % of control | [6] 95 % of control

CCCCCCC(CO)CCCC (centres undefined)
inactive: dose: 100.0 mg/kg/injection, schedule: Q04DX003 (ip), vehicle: Klucel (hydroxypropylcellulose) (HPC) 97 % of control | dose: 200.0 mg/kg/injection, schedule: Q04DX003 (ip), vehicle: Klucel (hydroxypropylcellulose) (HPC) 97 % of control | dose: 400.0 mg/kg/injection, schedule: Q04DX003 (ip), vehicle: Klucel (hydroxypropylcellulose) (HPC) 100 % of control

COc1ccc([N+](=O)[O-])cc1NS(=O)(=O)c1c(C)cc(C)cc1C
inactive: [2] 94 % of control and 88 % of control | dose: 100.0 mg/kg/injection, schedule: Q01DX001 (ip), vehicle: saline with Tween-80 92 % of control | [3] 94 % of control and 97 % of control | [7] 107 % of control | [4] 98 % of control | dose: 200.0 mg/kg/injection, schedule: Q01DX001 (ip), vehicle: saline with Tween-80 104 % of control | dose: 200.0 mg/kg/injection, schedule: Q01DX009 (ip), vehicle: saline with Tween-80 97 % of control and 103 % of control | dose: 200.0 mg/kg/injection, schedule: Q04DX002 (ip), vehicle: saline with Tween-80 103 % of control | [5] 97 % of control | dose: 400.0 mg/kg/injection, schedule: Q01DX001 (ip), vehicle: saline with Tween-80 92 % of control | dose: 400.0 mg/kg/injection, schedule: Q01DX009 (ip), vehicle: saline with Tween-80 97 % of control | dose: 400.0 mg/kg/injection, schedule: Q04DX002 (ip), vehicle: saline with Tween-80 103 % of control | [6] 93 % of control

CC(NC(=O)C(F)(F)F)C(=O)O (centres undefined)
inactive: dose: 100.0 mg/kg/injection, schedule: Q01DX009 (ip), vehicle: saline 92 % of control | dose: 100.0 mg/kg/injection, schedule: Q04DX003 (ip), vehicle: saline 103 % of control | dose: 200.0 mg/kg/injection, schedule: Q01DX009 (ip), vehicle: saline 95 % of control | dose: 200.0 mg/kg/injection, schedule: Q04DX003 (ip), vehicle: saline 93 % of control | dose: 400.0 mg/kg/injection, schedule: Q01DX009 (ip), vehicle: saline 113 % of control | dose: 400.0 mg/kg/injection, schedule: Q04DX003 (ip), vehicle: saline 97 % of control

c1coc(-c2ncc3cnccn23)c1
inactive: dose: 50.0 mg/kg/injection, schedule: Q01DX005 (ip), vehicle: saline 111 % of control | dose: 100.0 mg/kg/injection, schedule: Q01DX005 (ip), vehicle: saline 108 % of control

O=C(Nc1nccs1)Nc1cccc2ccccc12
inactive: dose: 100.0 mg/kg/injection, schedule: Q04DX002 (ip), vehicle: Klucel (hydroxypropylcellulose) (HPC) 93 % of control | dose: 200.0 mg/kg/injection, schedule: Q04DX002 (ip), vehicle: Klucel (hydroxypropylcellulose) (HPC) 93 % of control | dose: 400.0 mg/kg/injection, schedule: Q04DX002 (ip), vehicle: Klucel (hydroxypropylcellulose) (HPC) 93 % of control

CC(=O)CC(C)=O.CCCCC(C[C-]=O)N(CC)CC.[Pd+2] (centres undefined)
inactive: dose: 2.4 mg/kg/injection, schedule: Q04DX003 (ip), vehicle: distilled water + Tween-80 97 % of control | dose: 4.7 mg/kg/injection, schedule: Q04DX003 (ip), vehicle: distilled water + Tween-80 101 % of control | dose: 9.4 mg/kg/injection, schedule: Q04DX003 (ip), vehicle: distilled water + Tween-80 98 % of control | dose: 18.8 mg/kg/injection, schedule: Q04DX003 (ip), vehicle: distilled water + Tween-80 90 % of control

O=C1CC(O)(c2ccccc2)C2(c3ccccc3)OC2O1 (centres undefined)
inactive: dose: 100.0 mg/kg/injection, schedule: Q01DX001 (ip), vehicle: Klucel (hydroxypropylcellulose) (HPC) 101 % of control | dose: 100.0 mg/kg/injection, schedule: Q01DX009 (ip), vehicle: Klucel (hydroxypropylcellulose) (HPC) 96 % of control | dose: 200.0 mg/kg/injection, schedule: Q01DX001 (ip), vehicle: Klucel (hydroxypropylcellulose) (HPC) 101 % of control | dose: 200.0 mg/kg/injection, schedule: Q01DX009 (ip), vehicle: Klucel (hydroxypropylcellulose) (HPC) 93 % of control | dose: 400.0 mg/kg/injection, schedule: Q01DX001 (ip), vehicle: Klucel (hydroxypropylcellulose) (HPC) 101 % of control | dose: 400.0 mg/kg/injection, schedule: Q01DX009 (ip), vehicle: Klucel (hydroxypropylcellulose) (HPC) 95 % of control

CC1(C)N=C(N)N=C(N)N1c1ccc(OCCOc2ccc(S(=O)(=O)F)cc2)cc1
inactive: dose: 100.0 mg/kg/injection, schedule: Q01DX001 (ip), vehicle: gum acacia 101 % of control | dose: 200.0 mg/kg/injection, schedule: Q01DX001 (ip), vehicle: gum acacia 98 % of control | dose: 400.0 mg/kg/injection, schedule: Q01DX001 (ip), vehicle: gum acacia 103 % of control

O=C(C[n+]1cccc2ccccc21)c1ccc([N+](=O)[O-])cc1
inactive: [7] 109 % of control

CCCCCCCCCCCCOP(=O)(OCCCCCCCCCCCC)c1ccccc1
inactive: [1] 100 % of control | [8] 97 % of control | dose: 200.0 mg/kg/injection, schedule: Q01DX001 (ip), vehicle: saline 94 % of control | dose: 400.0 mg/kg/injection, schedule: Q01DX001 (ip), vehicle: saline 91 % of control

CC(Br)CN1CCOCC1 (centres undefined)
inactive: [8] 103 % of control
